By IC50 is commonly meant the concentration at which inhibition is half-maximal.

This is an account of results in patent publication US11357817B2, “Immunoproteasome inhibitor” (The Regents of the University of California, priority 2017, dated 2022).

One assay has as its target Pf20S (Plasmodium falciparum, UniProt A0A5K1K7U1+Q8IJT1). Kind of assay: Calculation of inhibition constants (inactivation kinetics), Pf20S. It counts as biochemical. The protocol:
The rate of AMC release was calculated in the presence of serial dilution of each inhibitor. The rate of product formation were calculated at 30 min intervals for 4 hours, and normalized to activity DMSO control to calculate inactivation curves. Kobs values for each inhibitor concentration were calculated from inactivation curves, and inhibition constants KI and kinact were calculated by non-linear regression of Kobs and inhibitor concentration using GraphPad Prism 6 software.

Assay [1] has as its system 20S Plasmodium proteasome (Pf20S) β2 subunit. The experiment in a line: Proteasome activity assay, Pf20S β2 (z-LRR-AMC). The class given is biochemical. The conditions noted are these: 450 nM compound; proteasome not named. As to the method:
(§1) Asynchronous P. falciparum cultures were grown up to 4-5% parasitemia, in 300 mL of RPMI media at 5.0% hematocrit. […] The PBS was removed and lysis buffer (0.15% saponin in PBS) was added on ice in 10 pellet volumes. Upon lysis of red blood cells, indicated by a clear red supernatant, the lysed cultures were centrifuged at 3200×g for 12 minutes at 4° C. The supernatant was removed by aspiration and the cells were washed twice using chilled PBS in microcentrifuge tubes. The cell pellets were then incubated on ice for 1 hour with occasional vortexing in a buffer consisting of 20 mM Tris-HCl pH 7.5, 5 mM MgCl2, 1 mM DTT, 100 μM E-64 and 1 mM AEBSF. This sample was then subjected to 3 rounds of freezing (−80° C.) and thawing (37° C.) and centrifugation at 6000×g for 10 min. The supernatant containing soluble P. falciparum protein was quantified by the BCA method (Pierce).
(§2) P. falciparum proteasome was enriched by two-chromatographic steps reported previously (10). […] The AMC fluorophore release was monitored at Ex 340/Em 465 nm at 24° C. using a Synergy HTX multi-mode reader (Biotek). […] Proteins were eluted using 20 mM Tris-HCl pH 7.5, 100 mM NaCl, 10% glycerol and 1 mL fractions were collected, evaluated for protease activity and pooled. […]

The test system of assay [2] is 20S Plasmodium proteasome (Pf20S) β1 subunit. The experiment in a line: Proteasome activity assay, Pf20S β1 (z-LLE-AMC). It counts as biochemical, Plasmodium falciparum. Particulars: 450 nM compound; proteasome not named. As to the method: as §1, §2
The subject of assay [3] is P. falciparum Stage V gametocytes. The experiment in a line: Compound sensitivity testing of Stage V gametocytes. The class given is cell-based. The conditions noted are these: Plasmodium falciparum, read-out: IC50 against stage V gametocytes. As to the method: Gametocytes were induced in NF54 or derived clones as previously described (33). Asexual blood stage parasites were synchronized at ring stage using 5% sorbitol for three consecutive life cycles. Once the culture reached a parasitemia of 8-10% ring stages, half of the media was exchanged to stress the parasites. Twenty-four hours later, the culture media was exchanged with fresh media and the culture was shaken overnight. The following day, the culture was treated with 50 mM N-acetyl-glucosamine (NAG) (in complete media), and new media containing NAG was added every day for 10 days to clear remaining asexual blood stage parasites and enrich for gametocytes. After 10 days, complete media without NAG was provided each day for the last two days of gametocyte development in order to obtain ˜1% gametocytemia with >80% Stage V specificity and no visible asexual blood stage parasites (assessed via Giemsa-stained thin smears). Drug Sensitivity of Stage V gametocytes were then determined using a published protocol using mitotracker red (34). Each compound was tested in technical triplicate in a ten-point concentration curve prepared by three-fold dilution starting at 12.5 μM. At least three independent experiments were carried out for EC50 determination and puromycin was used as a positive control. […]

Pf20S, sequence (A0A5K1K7U1 entry or part of it): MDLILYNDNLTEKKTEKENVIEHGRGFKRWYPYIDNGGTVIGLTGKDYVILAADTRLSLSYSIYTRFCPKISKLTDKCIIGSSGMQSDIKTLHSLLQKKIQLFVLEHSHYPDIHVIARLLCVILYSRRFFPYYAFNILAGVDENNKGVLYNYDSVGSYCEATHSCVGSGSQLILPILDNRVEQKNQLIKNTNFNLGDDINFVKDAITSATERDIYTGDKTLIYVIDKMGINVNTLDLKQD
Pf20S, sequence (Q8IJT1 entry or part of it): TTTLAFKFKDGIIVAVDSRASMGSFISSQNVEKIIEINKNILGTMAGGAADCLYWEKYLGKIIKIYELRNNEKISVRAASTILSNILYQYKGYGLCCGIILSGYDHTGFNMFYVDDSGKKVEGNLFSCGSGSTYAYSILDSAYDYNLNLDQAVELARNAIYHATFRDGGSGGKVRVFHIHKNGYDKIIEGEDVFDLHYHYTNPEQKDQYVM

For the molecule `CCCCCC(=O)N[C@@H](C(=O)N[C@@H](CCCC)C(=O)N[C@@H](CC(C)C)C(=O)[C@@]1(C)CO1)C(C)C` [Analog 18, (S)-2-((R)-2-hexanamido-3-methylbutanamido)-N—((S)-4-methyl-1-((R)-2-methyloxiran-2-yl)-1-oxopentan-2-yl)hexanamide], the Ki on Pf20S (Pf20S) is 372 nM. Moreover, the “reduction in potency to the Pf20S proteasome” value at Pf20S (kinact/Ki, 18 versus 1) was 10 fold. The β2 activity reduced in assay [1] worked out at 9%. In addition, the β1 activity reduced in assay [2] is on record as 6%. Besides, the IC50 in assay [3] is 130 nM.
